Like-named read-outs stand apart in the source and are kept apart here.
Tests used:
[1] = test system: HeLa; assay: Sulforhodamine B (SRB) assay; format: cell-based; details: Homo sapiens; for IC50: HeLa, Supplementary Table S1, SRB; for GI50: HeLa cervical cancer cells, 48 h, SRB
Summary of the method: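 Cells were plated at densities chosen per line for optimal growth, treated the next day with eight concentrations of compound, and incubated 48 h. They were then fixed in situ with trichloroacetic acid (3.3% final) and stained with sulforhodamine B in 1% acetic acid. GI50 was fitted from growth relative to time-zero and untreated controls.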

[2] = test system: MDA-MB231; assay: Sulforhodamine B (SRB) assay; format: cell-based; details: Homo sapiens, MDA-MB-231; for GI50: MDA-MB231 breast cancer cells, 48 h, SRB; for IC50: Supplementary Table S1, SRB
Summary of the method: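 Overnight-adhered cells, 10,000–25,000/cm^2; 8-point dilution series (2–4×); 48 h exposure; TCA fix, 0.4% SRB stain, OD read; GI50 by non-linear fit.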

[3] = test system: peripheral blood mononuclear cells (PBMC); assay: PBMC culture and MTS assay; format: cell-based, human; details: for GI50: Homo sapiens, 48 h; for Selectivity Index (PBMC): PBMCs versus average GI50 of cancer cells
Method: Peripheral blood mononuclear cells from healthy donors were isolated by density gradient centrifugation using Ficoll solution as described below. Blood samples used were supplied by the Canadian Blood Services under the Institutional Research Ethics Board Project # 18–099, and no human participants or volunteers were involved directly in the current study.
Whole blood was gently layered over an equal volume of Ficoll and centrifuged at 800 × g for 20 min with no brake. The Buffy coat was carefully collected by pipetting in 50 mL tubes and topped off with PBS. The cell isolates were subsequently mixed by inversion and centrifuged at 300 × g for 12 min. The supernatant was then carefully aspirated without disturbing the cell pellet, and the PBMCs were resuspended in ammonium-chloride-potassium (ACK) lysis buffer. The tubes were left to stand for 15 min to allow for red blood cell lysis. PBS was again added to the cells and centrifuged at 300 × g for 12 min and pelleted PBMCs were resuspended in RPMI + 10% heat inactivated FBS. Following counting, cells were centrifuged again and cryopreserved with a freezing medium composed of 40% FBS, 10% DMSO and 50% culture medium. Cryovials were placed in a − 80 °C for 24 h prior to transfer to liquid nitrogen for long-term storage.
PBMC cryovials were transferred from liquid nitrogen and placed in a 37 °C water bath until almost completely thawed. 1 mL of pre-warmed medium was added drop-wise and the entire contents of the cryovial was transferred to a 15-mL tube. Pre-warmed medium was then added to bring the volume up to 10 mL. The PBMCs were centrifuged at 300 × g for 10 min, and the cell pellet was gently resuspended with 5 mL of warm medium. The tubes were subsequently placed in a 37 °C incubator in a 5° angled rack for 4 h. An additional 5 mL warm medium containing of 30 units/mL benzonase nuclease was then injected into the cell solution and left to stand at room temperature for 5 min before centrifugation for 10 min at 300 × g. The pelleted cells were resuspended in the medium with 100 units/mL of IL-2 (Cedarlane Laboratories, Burlington, ON, Canada) and a small aliquot was used for cell counting and viability staining. The cells were plated in 96-well plates at a density of 80,000–120,000 cellules/well/100 µL.
Following a 48-h incubation period, eight different concentrations of compound solutions using two to four-fold serial dilutions were added to the cells (100 µl). Cells were incubated for an additional 48 h and cytotoxicity was established using the CellTiter 96 cytotoxicity assay (Promega). 40 μl of the tetrazolium dye was added to each well of the plate and then incubated for 2 h. OD was then read directly at 490 nm using the automated Biotek Synergy H4 plate reader. The GI50 was calculated similarly to the SRB.

[4] = Microsome metabolism assay; format: in vitro ADME, human; details: for half-life at 5 µM: human microsomes (20 mg/ml protein), NADPH, 120 min
Method: (a) CTR-21 is much more metabolically stable than CTR-32. 5 µM of CTR-21 or CTR-32 were incubated with human microsomes (20 mg/ml protein) in the presence of NADPH over the course of 120 min. The lysates were analyzed and % remaining CTR compounds were identified and estimated using HPLC–MS. (b) Summary of structure–activity relationship (SAR) based on activity and metabolic stability.
Microsome metabolism assay was carried out as per manufacturer protocol (ThermoFisher), with 5 µM of starting compound. Analytes were measured on a Waters Xevo G2-XS Quadrupole Time-of-Flight mass spectrometer. Half-life was calculated using exponential one phase decay (GraphPad Prism 5). Hydroxychloroquine was used as an internal standard (500 pg/µL).

[5] = test system: cancer cell lines (breast cancer, melanoma, cervical cancer); assay: SRB assay, average GI50 over cancer cell lines; format: cell-based; details: for fold decrease in GI50 relative to CTR-17: average GI50 compared with CTR-17
Method: The SRB assay was used to assess drug-induced cytotoxicity and cell proliferation as previously described[2],[33],[34] with a few modifications. Briefly, cells were plated 10,000 to 25,000 cells/cm^2 in 96-well plates (100 µl medium) and allowed to adhere overnight. The cell counts were different for each cell line to ensure optimal cell growth for the duration of the assay. Eight different concentrations of compound solutions using 2–4 times serial dilutions (100 µl). Cells were then incubated for an additional 48 h and then fixed with 100 µl ice-cold 10% (w/v) trichloroacetic acid (TCA) (without removing the cell medium, final concentration, 3.3% of TCA) and stained with 0.4% SRB (w/v) in 1% acetic acid (v/v). The relative growth rate (%) was calculated for each of the compound concentrations according to the following formula: 100 * (T − T0)/(C − T0), in which T is the optical density (OD) after exposure to a certain concentration of the compound after 48 h, T0 is the OD at the start of drug exposure (time zero) and C is the control growth. The GI50 for each compound was obtained from a non-linear sigmoidal dose–response (variable slope) curve fitted by GraphPad Prism v.4.03 software.

[6] = PBMC #1, MTS, read-out: GI50 PBMC #1
[7] = PBMC #2, MTS, read-out: GI50 PBMC #2
[8] = Table 1 and Supplemental Table S1 cell lines, read-out: GI50 range over the cancer cell lines
[9] = average over the cell lines of Table 1 or Supplemental Table S1, read-out: average GI50

Row | Compound | IC50 [1] [nM] | GI50 [1] [nM] | GI50 [2] [nM] | IC50 [2] [nM] | GI50 [3, 6] [nM] | GI50 [3, 7] [nM] | Selectivity Index (PBMC) [3] | half-life at 5 µM [4] [min] | GI50 [5, 8] [nM] | fold decrease in GI50 relative to CTR-17 [5] [fold] | GI50 [5, 9] [nM] | half-life relative to CTR-32 ([4]; human microsomes) | SI, cancer over normal cells [5] [fold] | enhancement of potency over CTR-17 and CTR-20 [5]
1 | CCOc1ccccc1C(=O)/C=C/c1cc2ccccc2[nH]c1=O [CTR-32, (E)-3-(3-(2-ethoxyphenyl)-3-oxoprop-1-enyl)quinolin-2(1H)-one] | 12.9 ± 0.35 | 11 ± 2 | 20 ± 2 | 44.2 ± 4.21 | 1880 ± 147 | 787 ± 396 | 67 | 13.7 | 5 to 91 | 23 | 20 | – | – | –
2 | COc1ccccc1C(=O)/C=C/c1cc2cccc(OC)c2[nH]c1=O [CTR-21, (E)-8-methoxy-3-(3-(2-methoxyphenyl)-3-oxoprop-1-enyl) quinolin-2(1H)-one] | 11.9 ± 1.4 | 8 ± 3 | 17 ± 3 | 56.9 ± 10.5 | 1860 ± 336 | 1630 ± 317 | 106 | 65.2 | 5 to 91 | 31 | 16.4 | almost five times greater | > 100 | ~ 30 fold

Source: paper PMC8566451, “Lead optimization of novel quinolone chalcone compounds by a structure–activity relationship (SAR) study to increase efficacy and metabolic stability” (Scientific Reports, 2021)
